Results on nine compounds are retold here after patent US12466810B2, “N-(5-(6-ethoxypyrazin-2-yl)pyridin-2-yl)-4-(2-(methylsulfonamido)pyrimidin-4-yl) tetrahydro-2H-pyran-4-carboxamide derivatives and related compounds as human CTPS1 inhibitors for the treatment of proliferative diseases” (Step Pharma S.A.S., priority 2019, dated 2025).

The IC50 is the concentration needed to halve the response being measured.

One assay concerns the target T1, human CTPS1 (Homo sapiens, UniProt P17812).
T1 construct: FLAG (GG linker + DYKDDDDK); His8 (GG linker + HHHHHHHH); purchased Proteros biostructures GmbH
T1 sequence (P17812 1-591): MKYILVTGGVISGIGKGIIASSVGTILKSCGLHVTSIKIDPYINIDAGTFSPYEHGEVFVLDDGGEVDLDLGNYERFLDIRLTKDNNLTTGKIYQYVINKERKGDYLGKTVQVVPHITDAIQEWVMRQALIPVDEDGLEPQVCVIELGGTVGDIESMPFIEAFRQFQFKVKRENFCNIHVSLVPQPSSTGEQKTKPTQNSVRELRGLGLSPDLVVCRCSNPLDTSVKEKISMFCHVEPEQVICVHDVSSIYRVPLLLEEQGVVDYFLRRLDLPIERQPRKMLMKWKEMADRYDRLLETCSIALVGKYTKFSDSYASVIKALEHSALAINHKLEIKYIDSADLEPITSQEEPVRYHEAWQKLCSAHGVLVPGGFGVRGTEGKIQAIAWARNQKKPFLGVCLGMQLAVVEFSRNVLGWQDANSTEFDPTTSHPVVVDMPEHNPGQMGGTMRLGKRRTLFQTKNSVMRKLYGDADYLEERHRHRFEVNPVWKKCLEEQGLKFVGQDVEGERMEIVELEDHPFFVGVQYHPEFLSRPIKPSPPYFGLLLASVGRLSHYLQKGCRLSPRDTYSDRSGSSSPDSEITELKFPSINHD
In words: Human CTPS1 enzyme inhibition (ADP-Glo Max assay). The class given is biochemical. The following applies: 25° C., read-out: Human CTPS1 Enzyme Inhibition IC50, grouped by potency range. On the procedure: The enzyme inhibitory activities of compounds invented against the target of interest were determined using the ADP-Glo™ Max assay (Promega, UK). Assays for human CTPS1 were performed in 1× assay buffer containing 50 mM Tris, 10 mM MgCl2, 0.01% Tween-20, pH to 8.0 accordingly. Finally, immediately before use, L-cysteine was added to the 1× assay buffer to a final concentration of 2 mM. All reagents are from Sigma-Aldrich unless specified otherwise.
Human full length active C-terminal FLAG-Hiss-tag CTPS1 (UniProtKB—P17812, CTPS1[1-591]-[…] (CTPS1[1-591]-SEQ ID NO: 1)) was obtained from Proteros biostructures GmbH.
3× human CTPS1 protein was prepared in 1× assay buffer to the final working protein concentration required for the reaction. A 2 uL volume per well of 3× human CTPS1 protein was mixed with 2 uL per well of 3× test compound (compound prepared in 1× assay buffer to an appropriate final 3× compound concentration respective to the concentration response curve designed for the compounds under test) for 10 minutes at 25° C. The enzymatic reaction was then initiated by addition of a 2 uL per well volume of a pre-mixed substrate mix (UltraPure ATP from ADP-GIo™ Max kit (0.31 mM), GTP (0.034 mM), UTP (0.48 mM) and L-glutamine (0.186 mM)) and the mixture was incubated for an appropriate amount of time within the determined linear phase of the reaction at 25° C. under sealed plate conditions with constant agitation at 500 revolutions per minute (rpm). ADP-GIo™ Max reagent was added for 60 minutes (6 μL per well) and subsequently ADP-GIo™ Max development reagent was added for 60 minutes (12 uL per well) prior to signal detection in a microplate reader (EnVision® Multilabel Reader, Perkin Elmer). Following each reagent addition over the course of the assay, assay plates were pulse centrifuged for 30 seconds at 500 rpm.
In all cases, the enzyme converts ATP to ADP and the ADP-Glo™ Max reagent subsequently depletes any remaining endogenous ATP in the reaction system. The ADP-Glo™ Max detection reagent converts the ADP that has been enzymatically produced back into ATP and using ATP as a substrate together with luciferin for the enzyme luciferase, light is generated which produces a detectable luminescence. […] The percentage inhibition produced by each concentration of compound was calculated using the equation shown below: […]
(§1) Percentage inhibition was then plotted against compound concentration, and the 50% inhibitory concentration (IC50) was determined from the resultant concentration-response curve.
On the technique in general: ADP-Glo first removes unused ATP, then detects ADP through luciferase.

The test system of a further assay is Human CTPS1 Versus CTPS2. The experiment in a line: RapidFire/MS-based enzyme selectivity assay, human CTPS1 versus CTPS2. The class given is biochemical. The following applies: RapidFire/MS IC50s. On the procedure: Human CTPS1 Versus CTPS2 Selectivity Assessment by RapidFire/MS Analysis.
The enzyme inhibitory activities against each target isoform of interest may be determined for the compounds of the invention using an optimised RapidFire high-throughput mass spectrometry (RF/MS) assay format. RF/MS assays for both human CTPS1 and CTPS2 may be performed in assay buffer consisting of 50 mM HEPES (Merck), 20 mM MgCl2, 5 mM KCl, 1 mM DTT, 0.01% Tween-20, pH to 8.0 accordingly. Human full-length active C-terminal FLAG-His-tag CTPS1 (UniProtKB—P17812, CTPS1[1-591]-[…] (CTPS1[1-591]-SEQ ID NO: 1)) may be obtained from Proteros biostructures GmbH. Human full length active C-terminal FLAG-His-Avi tagged CTPS2 (UniProtKB—Q9NRF8, CTPS2 [1-586]—[…] (CTPS2 [1-586]-SEQ ID NO: 2)) may be obtained from Harker Bio.
Human CTPS (1 or 2) protein may be prepared in 1× assay buffer to the final working protein concentration required for the reaction. A 2 uL volume per well of 2×CTPS (1 or 2) protein may be mixed with 40 nL of compound using acoustic (ECHO) delivery and incubated for 10 minutes at 25° C. Each isoform enzymatic reaction may be subsequently initiated by addition of 2 uL per well of a 2× substrate mix in assay buffer. For hCTPS1: ATP (0.3 mM), UTP (0.2 mM), GTP (0.07 mM) and L-glutamine (0.1 mM). For hCTPS2: ATP (0.1 mM), UTP (0.04 mM), GTP (0.03 mM) and L-glutamine (0.1 mM). Each mixture may be incubated for an appropriate amount of time per isoform within the determined linear phase of the reaction at 25° C. A 60 uL volume of stop solution (1% formic acid with 0.5 uM ^13C9-^15N3-CTP in H2O) may be added and the plate immediately heat-sealed and centrifuged for 10 minutes at 4,000 rpm. Following centrifugation, plates may be loaded onto the Agilent RapidFire microfluidic solid phase extraction system coupled to an API4000 triple quadrupole mass spectrometer (RF/MS) for analysis.
In all cases, the enzyme converts UTP to CTP. Highly specific and sensitive multiple reaction monitoring (MRM) MS methods may be optimised for the detection of the enzymatic reaction product, CTP, and the stable isotope labelled product standard ^13C-^15N-CTP. Readout for data analysis may be calculated as the ratio between the peak area of the product CTP and the internal standard […]. For data reporting, the following equation may be used: […]
For each screening plate, the means of the negative (DMSO) and positive control values were used for the calculation of the respective assay window (S/B) and Z′ values. The median of the respective control values was used for calculation of percent inhibition according to the following equation: […]
as §1
Fold selectivity between CTPS1 and CTPS2 was subsequently calculated according to the following equation: […]

Regarding `CCOc1cncc(-c2ccc(NC(=O)C3(c4ccnc(NS(=O)(=O)C5CC5)n4)CCN(C(=O)NC(C)C)CC3)nc2)n1` [P233, 4-(2-(Cyclopropanesulfonamido)pyrimidin-4-yl)-N4-(5-(6-ethoxypyrazin-2-yl)pyridin-2-yl)-N1-isopropylpiperidine-1,4-dicarboxamide], the IC50 on human CTPS1 was at most 100 nM. For the same compound, the “Fold selectivity between CTPS1 and CTPS2 (CTPS1)” value with Human CTPS1 Versus CTPS2 was “+++ (>60 fold (+++))”.

Consider `CCOc1cncc(-c2ccc(NC(=O)C3(c4ccnc(NS(=O)(=O)C5CC5)n4)CCN(C(C)C)CC3)nc2)n1` [P232, 4-(2-(Cyclopropanesulfonamido)pyrimidin-4-yl)-N-(5-(6-ethoxypyrazin-2-yl)pyridin-2-yl)-1-isopropylpiperidine-4-carboxamide], for which the IC50 at human CTPS1 is 100 to 1000 nM. Moreover, the “Fold selectivity between CTPS1 and CTPS2 (CTPS1)” value in the assay on Human CTPS1 Versus CTPS2 is listed as “+++ (>60 fold (+++))”.

Take `CCOc1cncc(-c2ccc(NC(=O)C3(c4nccc(NS(=O)(=O)C5CC5)n4)CCOCC3)nc2)n1` [P243, 4-(4-(cyclopropanesulfonamido)pyrimidin-2-yl)-N-(5-(6-ethoxypyrazin-2-yl)pyridin-2-yl)tetrahydro-2H-pyran-4-carboxamide]: the IC50 at human CTPS1 is at most 100 nM. Besides, in the assay with Human CTPS1 Versus CTPS2, the “Fold selectivity between CTPS1 and CTPS2 (CTPS1)” value is given as “+++ (>60 fold (+++))”.

`O=C(Nc1ccc(-c2cncc(Cl)c2)cn1)C1(c2ccnc(NS(=O)(=O)C3CC3)n2)CCOCC1` [P253, N-(5′-chloro-[3,3′-bipyridin]-6-yl)-4-(2-(cyclopropanesulfonamido)pyrimidin-4-yl)tetrahydro-2H-pyran-4-carboxamide]: the IC50 at human CTPS1 was at most 100 nM. Further, the “Fold selectivity between CTPS1 and CTPS2 (CTPS1)” value in the assay on Human CTPS1 Versus CTPS2 is “++ (>30-60 fold (++))”.

For the compound `CCOc1cncc(-c2ccc(C(=O)NC3(c4ccnc(NS(=O)(=O)C5CC5)n4)CCOCC3)nc2)n1` [P249, N-(4-(2-(cyclopropanesulfonamido)pyrimidin-4-yl)tetrahydro-2H-pyran-4-yl)-5-(6-ethoxypyrazin-2-yl)picolinamide], on human CTPS1, the IC50 was in the range of 100 to 1000 nM. Further, the “Fold selectivity between CTPS1 and CTPS2 (CTPS1)” value in the assay on Human CTPS1 Versus CTPS2 was “+++ (>60 fold (+++))”.

Take `CCOc1cncc(-c2ccc(NC(=O)C3(c4ccnc(NS(=O)(=O)CC(C)C)n4)CCOCC3)nc2)n1` [P250, N-(5-(6-ethoxypyrazin-2-yl)pyridin-2-yl)-4-(2-((2-methylpropyl)sulfonamido)pyrimidin-4-yl)tetrahydro-2H-pyran-4-carboxamide]: the IC50 at human CTPS1 was in the range of 100 to 1000 nM. Besides, the “Fold selectivity between CTPS1 and CTPS2 (CTPS1)” value in the assay on Human CTPS1 Versus CTPS2 is on record as “+++ (>60 fold (+++))”.

As to `CCOc1cncc(-c2ccc(NC(=O)C3(c4ccnc(NS(C)(=O)=O)n4)CCCCC3)nc2)n1` [P238, N-(5-(6-ethoxypyrazin-2-yl)pyridin-2-yl)-1-(2-(methylsulfonamido)pyrimidin-4-yl)cyclohexane-1-carboxamide], the IC50 at human CTPS1 is at most 100 nM. The “Fold selectivity between CTPS1 and CTPS2 (CTPS1)” value in the assay on Human CTPS1 Versus CTPS2 is on record as “+++ (>60 fold (+++))”.

On to `CCOc1cncc(-c2ccc(NC(=O)C3(c4ccnc(NS(=O)(=O)C5CC5)n4)CCN(C)CC3)nc2)n1` [P231, 4-(2-(Cyclopropanesulfonamido)pyrimidin-4-yl)-N-(5-(6-ethoxypyrazin-2-yl)pyridin-2-yl)-1-methylpiperidine-4-carboxamide], for which the IC50 on human CTPS1 lay in the range of 100 to 1000 nM. Besides, the “Fold selectivity between CTPS1 and CTPS2 (CTPS1)” value with Human CTPS1 Versus CTPS2 is given as “+++ (>60 fold (+++))”.

On to `CCOc1cncc(-c2ccc(NC(=O)C3(c4nccc(NS(=O)(=O)C5CC5)n4)CCN(C)CC3)nc2)n1` [P319, 4-(4-(cyclopropanesulfonamido)pyrimidin-2-yl)-N-(5-(6-ethoxypyrazin-2-yl)pyridin-2-yl)-1-methylpiperidine-4-carboxamide], for which the IC50 at human CTPS1 is at most 100 nM. In the assay with Human CTPS1 Versus CTPS2, the “Fold selectivity between CTPS1 and CTPS2 (CTPS1)” value is listed as “+++ (>60 fold (+++))”.
